Data published in patent US20250325469A1, “Inhibitors of atp synthase - cosmetic and therapeutic uses” (priority 2021, published 2025).

Columns and labels:
[1] = molecular target: T1, F1F0 ATP hydrolysis (Bos taurus, UniProt P00829+P19483); settings: cited from earlier work; for IC50: IF1 protein depleted SMPs from Bos taurus, pH 6.7, 37° C. [142]
T1 construct: IF1 protein depleted Sub-Mitochondrial Particles (SMPs) from Bos taurus; from tissue; host or cells: sub-mitochondrial particles from Bos taurus, endogenous IF1 removed

[2] = system: F1F0 ATP hydrolysis; settings: [8, 109]; cited from earlier work
[3] = system: cancer cell lines of the NCI-60 assay; assay: NCI one-dose (10 μM) NCI-60 testing; format: cell-based; settings: for anti-cancer activity: NCI-60 anti-cancer testing in vitro; for inhibition at 10 µM: 1-dose testing
Description: FIG. 1: Chiral supercritical fluid chromatography (SFC) was used to separate the shown racemate into its component R and S stereoisomers and two samples of opposite >97% enantiomeric excess (ee) was achieved: termed 8a and 8b respectively. 8a and 8b differ from 6a and 6b because they have methyl (Me, CH3), instead of hydrogen (H), upon their chiral carbon. 8a and 8b were independently tested in NCI one-dose (10 μM) testing: their results are shown in FIGS. (1B) and (1C) respectively.
(§1) (1E) 8a and 8b NCI one-dose (10 μM) test results side by side. % cancer growth inhibition >100 means there are less cancer cells at experiment end than beginning (i.e. cancer killing activity), =200=all cancer cells dead at experiment end. The observed pattern of 8a vs. 8b activity is hard to explain. One would expect one stereoisomer to have greater or equal activity than the other. […] Moreover, for one cancer cell line (NCI-H322M), 8a has no activity, yet 8b does.

[4] = rectal temperature and activity of mice administered compound; format: in vivo, mouse
Description: Hypoactivity of mouse, after being administered compound 6b, was because 6b caused the mouse's body temperature to drop towards its ambient temperature (22° C.). When ambient equals optimal body temperature (37° C.), 6b cannot reduce body temperature and cannot cause hypoactivity. In some embodiments, the hypoactivity/sedation aspect to a compound(s) of this disclosure is utilized for therapy. The intersection between drug dose and ambient temperature dictates how much the body temperature falls and thence the depth of the sedation. Larger drug dose, and/or lower ambient temperature, causes deeper sedation (e.g. useful for inducing anaesthesia, pre-anaesthesia, post-anaesthesia, hypoesthesia, sedation, coma, tranquilization, behavioural submission, muscle relaxation and/or treating/ameliorating/preventing/combating insomnia, fatal insomnia, sleep onset latency, delayed sleep phase disorder, exploding head syndrome, parasomnia, sleep-maintenance insomnia, sleep disorder etc.; repeated/continuous administration, e.g. repeated i.v. injections or continuous i.v. infusion, of a compound(s) of this disclosure can sedate a subject for an extended period of time). Smaller drug dose, and/or higher ambient temperature, causes lighter sedation (e.g. useful for anti-anxiety, anti-depression, hyperactivity etc.). At ambient≥optimal body temperature (37° C.), no sedation occurs. […]

[5] = system: cancer cell lines of the NCI-60 assay; assay: NCI-60 five-dose in vitro assay; format: cell-based; settings: at 10 μM in 5-dose testing
Description: The present figure, herein, is a summary figure of that data (corresponding to FIG. 16K in the aforementioned Canadian application). Mean G150 for 8b and 8a is 3.09 and 2.85 μM respectively. […] In the 8a case, this GI50 is lower/better than 65% of 102 FDA approved cancer drugs in [112]. A salt of 8a. e.g. 8a HCl, is likely to have an even lower G150 in NCI five-dose testing.
The Pearson correlation coefficient between 8a activity in 1-dose (10 μM) and at 10 μM in 5-dose NCI-60 testing: R=0.4544 p=0.00034. The Pearson correlation coefficient between 8b activity in 1-dose (10 μM) and at 10 μM in 5-dose NCI-60 testing: R=0.6156, p<0.00001. […] So, this isn't unexpected. Not wishing to be bound by theory, in 5-dose NCI-60 testing, why 8a has a lower mean GI50 than 8b will now be explained. […] Except for the cancer cell lines that 8b exerted much more activity than 8a at in 1-dose testing, wherein the increased activity of 8a can't completely make up the deficit and overtake the activity of 8b.

[6] = system: A498; assay: NCI one-dose (10 μM) testing, A498; format: cell-based
Description: as §1

[7] = system: NCI-H322M; assay: NCI one-dose (10 μM) testing, NCI-H322M; format: cell-based
Description: as §1

[8] = system: MDA-MB-231/ATCC; assay: NCI one-dose (10 μM) testing, MDA-MB-231/ATCC; format: cell-based
Description: as §1

[9] = system: cells; settings: each attached to the cargo sequence by introduced cysteines and a disulphide bond; cited from earlier work
[10] = read-out: Mean % cancer growth inhibition
[11] = read-out: Median % cancer growth inhibition

In the case of “1-56: Bos taurus IF1 protein fragment, residues 1-56 (GSESGDNVRSSAGAVRDAGGAFGKREQAEEERYFRARAKEQLAALKKHHENEISHH; UniProt P01096 26-81, looked up, fragment) [Compound 1-56]”, the IC50 [1] is given as 32 nM.

In the case of “1-60: Bos taurus IF1 protein fragment, residues 1-60 (GSESGDNVRSSAGAVRDAGGAFGKREQAEEERYFRARAKEQLAALKKHHENEISHHAKEI; UniProt P01096 26-85, looked up, fragment) [Compound 1-60]”, the IC50 [1] is given as 19 nM.

In the case of “10-46: Bovine IF1 protein fragment, residues 10-46 (SSAGAVRDAGGAFGKREQAEEERYFRARAKEQLAALK; UniProt P01096 35-71, looked up, fragment) [Compound 10-46]”, the inhibitory activity ([1]; bovine IF1 protein fragments, FIG. 10I legend [142, 144]) is listed as “ten-fold less activity than 10-47”.

In the case of “10-47: Bos taurus IF1 protein fragment, residues 10-47, mature numbering (SSAGAVRDAGGAFGKREQAEEERYFRARAKEQLAALKK; UniProt P01096 35-72, looked up, fragment) [Compound 10-47]”, the IC50 [1] is listed as 45 nM.

In the case of `N#Cc1cccc(C(=O)/N=C(\Nc2ccc(Cl)cc2)N[C@@H](Cn2ccnc2)c2ccc(Cl)cc2Cl)c1` [Compound 6a], the “ability to inhibit/reduce F1F0 ATP hydrolysis” value [2] is given as “cannot” and the anti-cancer activity [3] is given as “anti-cancer activity”.

In the case of `N#Cc1cccc(C(=O)/N=C(\Nc2ccc(Cl)cc2)N[C@H](Cn2ccnc2)c2ccc(Cl)cc2Cl)c1` [Compound 6b], the “ability to inhibit/reduce F1F0 ATP hydrolysis” value [2] is given as “can potently inhibit/reduce F1F0 ATP hydrolysis”, the anti-cancer activity [3] is given as “anti-cancer activity” and the rectal temperature ([4]; ambient room temperature 22° C., dose dependent) is given as “reduces its rectal temperature towards the ambient room temperature”. For the same compound, the hypoactivity ([4]; ambient temperature 22° C.) was “hypoactivity”.

For `[2H][C@@](Cn1ccnc1)(N/C(=N/C(=O)c1cccc(C#N)c1)Nc1ccc(Cl)cc1)c1ccc(Cl)cc1Cl` [Compound 7a], the anti-cancer activity [3] was “less anti-cancer activity than 6a”.

Compound `C[C@@](Cn1ccnc1)(N/C(=N/C(=O)c1cccc(C#N)c1)Nc1ccc(Cl)cc1)c1ccc(Cl)cc1Cl` [Compound 8a] has an inhibition at 10 µM [5, 10] of 103%, an inhibition at 10 µM [5, 11] of 95% and an inhibition at 10 µM [3, 10] of 60.3%. For the same compound, the inhibition at 10 µM [3, 11] was 59.8%, the “Δ % cancer growth inhibition, 8a greater than 8b” value [6] was 38.57 and the anti-cancer activity [7] was “no activity”.

With `C[C@](Cn1ccnc1)(N/C(=N/C(=O)c1cccc(C#N)c1)Nc1ccc(Cl)cc1)c1ccc(Cl)cc1Cl` [Compound 8b] the “Δ % cancer growth inhibition, 8b greater than 8a” value [8] was 85.34%, the inhibition at 10 µM [5, 10] was 99.4% and the inhibition at 10 µM [5, 11] was 93%. For the same compound, the inhibition at 10 µM [3, 10] was 76.5%, the inhibition at 10 µM [3, 11] was 77% and the anti-cancer activity [3] was “greater anti-cancer activity than 8a”. For the same compound, the anti-cancer activity [7] was “does”.

In the case of “Bos taurus IF1 protein: Bos taurus IF1 protein recombinantly produced in E. Coli”, the IC50 [1] is listed as 34 nM.

In the case of “RRRRRRR (Cell Penetrating Peptide (CPP) sequence) [Compound R7, heptamer of L-arginine residues, cell penetrating peptide]”, the “cellular penetration compared with Tat or penetratin” value [9] is listed as “twice as good”.
